According to patent US6375927B1, “Methods of radiotherapy using biomodulators” (priority 1991, dated 2002):

Legend:
[1] = test system: B-16 melanoma cells; assay: Effect of a biomodulator on the biodistribution of a non-specific agent (I-125 BSA); assay type: in vivo, mice; details: 2 hours (FIG. 9) and 4 hours (FIG. 10)
From the text: The results of biodistribution studies of mice injected with 6×10^5 B-16 melanoma cells 7 days prior to the injection of Tc-99m labeled pokeweed (Tc-99m PWM) and I-125 bovine serum albumin (I-125 BSA) or Tc-99m labeled human serum albumin (Tc-99m HSA) and I-125 bovine serum albumin (I-125 BSA) .

[2] = test system: xenografts of human teratocarcinoma tumors; assay: Imaging tumors with 99mTc-labeled TNF-α and biomodulators; assay type: in vivo, Balb/c mice; details: pretreatment 15 hours earlier
Experimental: Balb/c mice bearing xenografts of human teratocarcinoma tumors induced by subcutaneous injections of live tumor cells 8 days previously were injected with 10 μg of Ukrain, pokeweed mitogen or 10K units of interferon. 15 hours later, they were injected i.v. with 10 μCi of ^99mTc-labeled TNF-α labeled using the ascorbic acid reduction method of M. L. Thakur. M. L. Thakur et al., “Tc-99m Labeled Monoclonal Antibodies: Evaluation of Reducing Agents,” Internat. J. Nucl. Med. Biol. 18, 227-233 (1991). M. L. Thakur et al., “Tc-99m Labeled Monoclonal Antibodies for Immunoscintigraphy: Simplified Preparation and Evaluation,” J. Immunol. Methods 137, 217-225 (1991). Mice were imaged at 1.5, 4 and 24 hours post injection of the ^99m-labeled TNF-α and sacrificed for tissue distribution studies.

[3] = test system: B-16 melanoma cells; assay: Tissue localization of otherwise non-specific imaging agent (Tc-99m HSA) after pokeweed mitogen; assay type: in vivo, mouse; details: 10 μg pokeweed mitogen four hours before 99mTc-HSA
Experimental: A mouse ([…]) was injected with B-16 melanoma cells in accordance with Example 1. 7 days later, 10 μg of pokeweed mitogen was injected into the mouse. Four hours later ^99mTc-human serum albumin (HSA) was injected. The resultant posterior gamma camera image is obtained of the tumor grown in the mouse. Comparison with the control image.

[4] = test system: canine glioma tumors; assay: NMR imaging of tumor using pokeweed mitogen; effect on T1; assay type: in vivo, nude rats
Experimental: Three nude rats were implanted with canine glioma tumors in their left flank. […] NMR imaging was performed as above at 4 hours post injection.

[5] = 4 and 24 hours post injection of TNF-α
[6] = 1.5 hours post injection of TNF-α
[7] = treatment with unlabeled PWM, FIG. 6

Row | Substance | distribution of I-125 BSA depending on co-injected agent (Tc-99m PWM or Tc-99m HSA) [1] | tumor to muscle ratios of radioisotope uptake (99mTc-labeled TNF-α) compared to mice not receiving biomodulators or interferon [2, 5] | tumor to muscle ratios of radioisotope uptake (99mTc-labeled TNF-α) compared to mice not receiving biomodulators or interferon [2, 6] | gamma camera image of tumor with 99mTc-HSA versus control image without pokeweed mitogen [3] | Visualization of the tumors (NMR imaging) ([4]; 4 hours post injection, 7 days post-implantation) | effect on T1 of the treated tissue image ([4]; NMR image, 4 hours post injection) | T1 measured on the tumor [4, 7] | T1 of normal muscle tissue [4, 7]
1 | I-125 BSA: I-125 bovine serum albumin, non-specific agent | significant differences |  |  |  |  |  |  | 
2 | interferon |  | not at 4 and 24 hours | enhanced |  |  |  |  | 
3 | pokeweed mitogen |  | not at 4 and 24 hours | enhanced | significant image enhancement | observed as bright areas | lowers T1 | enhanced tenfold | remained at baseline levels
